Test results from US4678775A, “Method of controlling pests” (priority 1984, dated 1987).
Like-named read-outs stand apart in the source and are kept apart here.

System: octopamine-sensitive adenylate cyclase
Assay: Activation of octopamine-sensitive adenylate cyclase, firefly light organ broken cell preparation
Assay type: biochemical, Photinus pyralis
[1] = Table 1, ratio greater than 1 = better than (±)-p-octopamine
[2] = Table 1, maximal activation as % of that by (±)-p-octopamine, N.A. = No Activity
[3] = Table 2, clonidines, N.A. = no activity

SMILES	Ka^oct/Ka^(1) ratio (column head is drawing 15) [1]	Ka ratio to octopamine (Table 2, clonidines)	Vmax (% OCT) [3]	further results
CN(C)CC(O)c1ccc(O)cc1 (racemic) [(±)-N,Ndimethyloctopamine, reference compound]	0.9			
CC(N)C(O)c1ccccc1 (racemic) [(±)-norephedrine, reference compound]				Ka^oct/Ka^(1) ratio (column head is drawing 15): < 0.09; Vmax (% OCT) [2]: 8 ± 1 % OCT
COc1cc(C(O)CN)ccc1O (racemic) [(±)-normetanephrine, reference compound]	0.07			
NCC(O)c1ccccc1O (racemic) [(±)-o-octopamine, reference compound]	0.05			
CC(N)Cc1ccc(O)cc1 (racemic) [(±)-p-hydroxyamphetamine, reference compound]				Ka^oct/Ka^(1) ratio (column head is drawing 15): < 0.05; Vmax (% OCT) [2]: 8 ± 3 % OCT
CC(N)C(O)c1ccc(O)cc1 (racemic) [(±)-α-methyloctopamine, reference compound]	0.05			Vmax (% OCT) [2]: 44 ± 2 % OCT
CNC(C)C(O)c1ccc(O)cc1 (racemic) [(±)-α-methylsynephrine, reference compound]	< 0.01			Vmax (% OCT) [2]: 7 ± 2 % OCT
NC[C@@H](O)c1ccc(O)cc1 [(+)-p-octopamine, reference compound]				Vmax (% OCT) [2]: 81 ± 1 % OCT
CNC[C@H](O)c1ccc(O)c(O)c1 [(-)-epinephrine, reference compound]				Ka^oct/Ka^(1) ratio (column head is drawing 15): 0.20
NC[C@H](O)c1ccc(O)c(O)c1 [(-)-nonrepinephrine, reference compound]	0.13			
CNC[C@H](O)c1cccc(O)c1 [(-)-phenylephrine, reference compound]	< 0.2			
Clc1ccc(Cl)c(N=C2NCCN2)c1 [NC 2]		1.1	9 % OCT	
Clc1cc(Cl)c(N=C2NCCN2)cc1Cl [NC 3]		2.8	80 % OCT	octopamine potency ratio: 3.0
Cc1cccc(C)c1N=C1NCCN1 [NC 4]		0.41	80 % OCT	
Brc1cccc(Br)c1N=C1NCCN1 [NC 6]		2.1	35 % OCT	
Clc1ccc(N=C2NCCN2)c(Cl)c1 [NC 8]		3.7	47 % OCT	octopamine potency ratio: 3.7
Cc1ccc(N=C2NCCN2)c(C)c1 [NC 9]		5.1	78 % OCT	octopamine potency ratio: 5.1
Clc1cc(Cl)c(N=C2NCCN2)c(Cl)c1 [NC 11]		1.9	60 % OCT	
Brc1ccc(N=C2NCCN2)cc1 [NC 12]		3.0	34 % OCT	
Cc1cc(C)c(N=C2NCCN2)c(C)c1 [NC 13]		4.3	112 % OCT	octopamine potency ratio: 4.3
Nc1cc(Cl)c(N=C2NCCN2)c(Cl)c1 [NC 14]		0.7	29 % OCT	
CN(C)c1cc(Cl)c(N=C2NCCN2)c(Cl)c1 [NC 15]		1.9	38 % OCT	
CN(CCCl)c1cc(Cl)c(N=C2NCCN2)c(Cl)c1 [NC 16]		4.8	6 % OCT	
CNCCc1ccc(O)c(O)c1 [Nmethyldopamine, reference compound]	0.19			
NCCc1ccc(O)c(O)c1 [dopamine, reference compound]	0.26			Vmax (% OCT) [2]: 4 ± 1 % OCT
NCC(O)c1ccc(O)c(Cl)c1 (centres unmarked) [m-chloro-octopamine]	0.28			
COc1ccc(CCN)cc1 [p-methoxyphenylethylamine, reference compound]	0.10			Vmax (% OCT) [2]: 6 ± 3 % OCT
NCCc1ccc(O)cc1 [tyramine, reference compound]	0.15			
